For this assay, the target named is Cav2.3 (Homo sapiens, UniProt Q15878). The experiment in a line: Human Cav2.3 channel calcium-influx assay. In kind it is cell-based. Conditions: HEK-293 T-Rex/Kir2.1 cells with inducible Cav2.3e-β4-α2δ1; Fluo8 fluorescence; 8-point dose response from 30 μM; no pluronic acid; read-out: Cav2.3 (pIC50) (converted). On the procedure: HEK-293 T-Rex cells were transfected with pcDNA3.1-Kir2.1 to generate a stable cell line. After antibiotic selection, the obtained stable pools were analysed using FLIPR^TETRA(membrane potential assay), and a limiting dilution was performed and a HEK-293 T-Rex/Kir2.1 clone was selected. The clone was transfected with pcDNA3.1-Cav2.3e and pBud-Cav-β4-α2δ1 to generate a stable cell line where the Cav2.3e expression is inducible. After antibiotic selection, functional clone pool analysis and two successive limiting dilutions, the final clone underwent a qPCR analysis and a biophysical and pharmacological validation using patch-clamp.
Cav2.3, sequence (Q15878 1-2270 isoform Q15878-3): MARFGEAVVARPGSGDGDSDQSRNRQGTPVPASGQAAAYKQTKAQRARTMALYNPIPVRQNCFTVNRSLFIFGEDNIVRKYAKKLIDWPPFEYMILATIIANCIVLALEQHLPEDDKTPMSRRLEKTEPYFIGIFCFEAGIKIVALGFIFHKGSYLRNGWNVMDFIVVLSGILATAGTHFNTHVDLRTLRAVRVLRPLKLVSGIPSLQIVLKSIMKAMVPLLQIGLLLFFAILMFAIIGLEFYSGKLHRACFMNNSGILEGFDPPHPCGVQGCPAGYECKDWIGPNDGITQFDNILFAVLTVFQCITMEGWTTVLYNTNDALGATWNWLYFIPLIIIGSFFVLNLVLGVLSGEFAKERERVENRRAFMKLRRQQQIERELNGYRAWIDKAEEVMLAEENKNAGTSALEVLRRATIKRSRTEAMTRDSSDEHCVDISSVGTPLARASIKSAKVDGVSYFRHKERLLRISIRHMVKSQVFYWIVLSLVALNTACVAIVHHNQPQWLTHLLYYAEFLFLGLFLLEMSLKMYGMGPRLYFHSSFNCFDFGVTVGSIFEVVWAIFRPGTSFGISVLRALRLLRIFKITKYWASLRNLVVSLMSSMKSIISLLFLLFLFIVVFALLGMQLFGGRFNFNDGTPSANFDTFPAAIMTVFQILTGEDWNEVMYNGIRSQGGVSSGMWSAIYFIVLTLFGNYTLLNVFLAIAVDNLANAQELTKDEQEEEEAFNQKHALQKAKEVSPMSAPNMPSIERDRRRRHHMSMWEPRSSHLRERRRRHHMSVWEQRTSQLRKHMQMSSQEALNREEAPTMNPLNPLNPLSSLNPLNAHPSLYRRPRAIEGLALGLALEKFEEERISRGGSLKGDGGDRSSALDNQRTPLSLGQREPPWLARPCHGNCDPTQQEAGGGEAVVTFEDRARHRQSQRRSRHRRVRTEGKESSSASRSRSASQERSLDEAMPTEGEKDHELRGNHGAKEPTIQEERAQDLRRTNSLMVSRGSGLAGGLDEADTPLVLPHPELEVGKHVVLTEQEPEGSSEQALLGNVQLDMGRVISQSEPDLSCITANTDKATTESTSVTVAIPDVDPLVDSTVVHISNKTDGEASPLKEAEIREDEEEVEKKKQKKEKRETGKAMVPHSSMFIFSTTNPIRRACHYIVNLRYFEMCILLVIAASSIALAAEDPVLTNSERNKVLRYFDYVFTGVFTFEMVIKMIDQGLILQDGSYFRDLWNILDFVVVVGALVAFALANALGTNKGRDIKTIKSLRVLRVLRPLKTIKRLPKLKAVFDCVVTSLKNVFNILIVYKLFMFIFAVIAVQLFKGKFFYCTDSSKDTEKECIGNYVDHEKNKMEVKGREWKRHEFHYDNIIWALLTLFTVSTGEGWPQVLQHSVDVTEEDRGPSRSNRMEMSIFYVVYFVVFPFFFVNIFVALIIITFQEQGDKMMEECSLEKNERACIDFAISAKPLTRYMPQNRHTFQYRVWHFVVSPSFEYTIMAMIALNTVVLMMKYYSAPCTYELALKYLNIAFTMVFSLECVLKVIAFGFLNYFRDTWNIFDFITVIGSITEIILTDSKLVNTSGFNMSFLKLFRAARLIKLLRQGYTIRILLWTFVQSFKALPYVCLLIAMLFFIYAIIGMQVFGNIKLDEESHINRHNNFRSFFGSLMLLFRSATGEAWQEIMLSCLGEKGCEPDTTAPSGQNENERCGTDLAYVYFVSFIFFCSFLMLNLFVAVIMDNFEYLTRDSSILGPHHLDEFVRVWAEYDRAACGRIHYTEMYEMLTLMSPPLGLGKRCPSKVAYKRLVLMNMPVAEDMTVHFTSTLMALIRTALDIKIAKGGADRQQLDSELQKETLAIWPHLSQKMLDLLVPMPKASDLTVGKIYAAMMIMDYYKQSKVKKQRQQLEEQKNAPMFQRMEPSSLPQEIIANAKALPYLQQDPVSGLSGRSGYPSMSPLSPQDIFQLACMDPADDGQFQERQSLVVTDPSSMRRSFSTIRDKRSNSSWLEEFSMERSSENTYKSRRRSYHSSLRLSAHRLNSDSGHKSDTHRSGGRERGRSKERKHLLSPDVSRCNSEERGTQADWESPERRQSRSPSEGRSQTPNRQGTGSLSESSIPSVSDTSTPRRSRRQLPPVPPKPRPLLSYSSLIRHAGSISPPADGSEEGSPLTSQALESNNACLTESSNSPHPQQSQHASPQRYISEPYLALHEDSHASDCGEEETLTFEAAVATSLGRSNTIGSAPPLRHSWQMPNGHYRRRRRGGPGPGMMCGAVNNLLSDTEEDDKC
A compound plate, containing 10 test compounds in eight-points dose response with n=4, was prepared. Test compounds dose response curves were prepared in automated fashion in 100% DMSO at CyBio Felix and starting from a stock solution in 100% DMSO; a defined volume was serially moved into destination wells pre-filled with the desired DMSO volume; stock solution concentration volumes were dependent on the final compounds concentrations to be tested and the final DMSO content used in the assay. For the assay test compounds dose response curves ranged from 30 μM and half log dilution with 0.3% final DMSO. In order to obtain the 8-points dose response curve all the concentrations were created by starting from a 10 mM DMSO stock solution and then moving 9.5 μL into a destination well pre-filled with 20.5 μL of 100% DMSO and repeating this step seven times. This initial step was done into 96 MTP plates, 10 compounds/plate. One 384 MTP was then reformatted to contain all the 10 compounds at 8 concentrations, quadruplicate data points. This so obtained 384 MTP compound plate served as source plate in a “mother to child” process with a CyBi®-Well dispenser in which 0.7 μL of compounds were moved into a destination plate pre-filled with 57.6 μL of Tyrode's buffer 0 mM K^+, thus obtaining 4× concentrated compounds solution. In columns 1-2 and 23-24 the control wells were added. Both “source” compound plate and “destination” compound plate were barcoded and a relationship between the two plates was thus generated.
The day before the experiment, cells were detached by gentle wash with DPBS, followed by 5 min incubation at 37° C. with Trypsin solution. Detached cells were diluted with OptiMEM+Doxycycline at 0.2 μg/mL, counted and plated in Poly-D-Lysine coated black/clear bottom (15.000 c/well in 20 μl/well) by the use of a MATRIX WellMate dispenser. Plates were placed into a humidified incubator at 37° C. with 5% CO2 until the experimental day. 24 h after seeding 10 μL/well of 1.5× Fluo8 NW dye solution prepared in Tyrode's buffer 0 mM K^+ were added on top of the seeding medium. Cell plates were incubated for 40-60 min at RT in the dark. We then Injected off-line 10 μL/well of test compounds and controls 4× concentrated in Tyrode's Buffer 0 mM K+ with the CyBi®-Well instrument. Cell plates were incubated 3 minutes at RT. Finally, we injected 20 μL/well of 3× concentrated activator solution (K20-Na130-Ca2 buffer: 20 mM KCl, 130 mM NaCl, 2 mM CaCl2, 10 mM HEPES, 10 mM Glucose, final concentrations, prepared starting from “K0-Na150-Ca2” and “K150-Na0-Ca2” buffers) at FDSS7000EX instrument and read emitted fluorescence for 130 seconds.
Data analysis was performed with Genedata Screener® software and reported compounds activity as % effect in relation to the normalization standards. The Kinetic Response Value (KRV) is calculated as follows:
KRV=Maximal fluorescence recorded from second 5 to second 130 minus baseline fluorescence, computed as average from second 1 to second 2, of the kinetic trace. The KRV was normalized versus Neutral Controls and Inhibitor Controls in order to obtain the Activity[%] for each well. […] Therefore, the compound activity values were scaled (based on the two references) to a common range (two-point normalization). […]
`CCN([C@@H](C)c1ccccc1)S(=O)(=O)c1ccc2c(c1)CCN(C(=O)C(C)C)C2` [Example 25, (S)-N-ethyl-2-isobutyryl-N-(1-phenylethyl)-1,2,3,4-tetrahydroisoquinoline-6-sulfonamide]: the IC50 was 1450 nM. For `CCN(C(c1ccc(F)cc1)C(F)(F)F)S(=O)(=O)c1ccc2c(c1)CN(C(=O)C1COC1)CC2` (stereo not drawn) [Example 44, N-ethyl-2-(oxetane-3-carbonyl)-N-(2,2,2-trifluoro-1-(4-fluorophenyl)ethyl)-1,2,3,4-tetrahydroisoquinoline-7-sulfonamide], the IC50 is 2040 nM. In the case of `CCN(C(c1ccc(F)cc1)C(F)(F)F)S(=O)(=O)c1ccc2c(c1)CN(C(=O)C1CC1)CC2` (stereo not drawn) [Example 46, 2-(Cyclopropanecarbonyl)-N-ethyl-N-(2,2,2-trifluoro-1-(4-fluorophenyl)ethyl)-1,2,3,4-tetrahydroisoquinoline-7-sulfonamide], the IC50 is 316 nM.

Turning to `CCN([C@H](c1ccc(F)cc1)C(F)(F)F)S(=O)(=O)c1ccc2c(c1)CN(C(=O)C(C)(C)F)CC2` [Example 41, (R)-N-ethyl-2-(2-fluoro-2-methylpropanoyl)-N-(2,2,2-trifluoro-1-(4-fluorophenyl)ethyl)-1,2,3,4-tetrahydroisoquinoline-7-sulfonamide], the IC50 was 891 nM. As for `CCN([C@@H](C)c1ccc(F)cc1)S(=O)(=O)c1ccc2c(n1)CCN(C(=O)C1CC1)C2` [Example 33, (S)-6-(cyclopropanecarbonyl)-N-ethyl-N-(1-(4-fluorophenyl)ethyl)-5,6,7,8-tetrahydro-1,6-naphthyridine-2-sulfonamide], the IC50 was 3630 nM. As to `CCN([C@@H](c1ccc(F)cc1)C(F)(F)F)S(=O)(=O)c1ccc2c(c1)CN(C(=O)C(C)C)CC2` (stereo in doubt) [Example 7, N-ethyl-2-isobutyryl-N-(2,2,2-trifluoro-1-(4-fluorophenyl)ethyl)-1,2,3,4-tetrahydroisoquinoline-7-sulfonamide], the IC50 is 2000 nM. Consider `C[C@@H](c1ccccc1)N(C)S(=O)(=O)c1ccc2c(c1)CN(C(=O)C(F)(F)F)CC2` [Example 2, (S)-N-methyl-N-(1-phenylethyl)-2-(2,2,2-trifluoroacetyl)-1,2,3,4-tetrahydroisoquinoline-7-sulfonamide], for which the IC50 was 2040 nM.

Regarding `CCN([C@@H](C)c1ccc(F)cc1)S(=O)(=O)c1ccc2c(c1)CCN(C(=O)C(C)C)C2` [Example 24, (S)-N-ethyl-N-(1-(4-fluorophenyl)ethyl)-2-isobutyryl-1,2,3,4-tetrahydroisoquinoline-6-sulfonamide], the IC50 is 1740 nM. In the case of `CCN(C(c1ccc(F)cc1)C(F)(F)F)S(=O)(=O)c1ccc2c(c1)CN(C(=O)C(C)(C)F)CC2` (stereo not drawn) [Example 18, N-ethyl-2-(2-fluoro-2-methylpropanoyl)-N-(2,2,2-trifluoro-1-(4-fluorophenyl)ethyl)-1,2,3,4-tetrahydroisoquinoline-7-sulfonamide] it was 1100 nM; in that of `CC(C)C(=O)N1CCc2ccc(S(=O)(=O)N(C)C(c3ccc(F)cc3)C(F)(F)F)cc2C1` (stereo not drawn) [Example 8, 2-isobutyryl-N-methyl-N-(2,2,2-trifluoro-1-(4-fluorophenyl)ethyl)-1,2,3,4-tetrahydroisoquinoline-7-sulfonamide], 1070 nM; in that of `CCN(C(c1ccc(F)cc1)C(F)(F)F)S(=O)(=O)c1ccc2c(c1)CN(C(=O)C1CCOCC1)CC2` (stereo not drawn) [Example 43, N-ethyl-2-(tetrahydro-2H-pyran-4-carbonyl)-N-(2,2,2-trifluoro-1-(4-fluorophenyl)ethyl)-1,2,3,4-tetrahydroisoquinoline-7-sulfonamide], 589 nM. Regarding `CCN(C(c1ccc(F)cc1)C(F)(F)F)S(=O)(=O)c1ccc2c(c1)CN(C1COC1)CC2` (stereo not drawn) [Example 45, N-ethyl-2-(oxetan-3-yl)-N-(2,2,2-trifluoro-1-(4-fluorophenyl)ethyl)-1,2,3,4-tetrahydroisoquinoline-7-sulfonamide], the IC50 was 525 nM. `CC(C)C(=O)N1CCc2ccc(S(=O)(=O)N(C)[C@@H](C)c3ccc(F)cc3)cc2C1` [Example 11, (S)-N-(1-(4-fluorophenyl)ethyl)-2-isobutyryl-N-methyl-1,2,3,4-tetrahydroisoquinoline-7-sulfonamide]: the IC50 was 851 nM. In the case of `C[C@@H](c1ccccc1)N(C)S(=O)(=O)c1ccc2c(c1)CN(C(=O)c1ccccc1)CC2` [Example 4, (S)-2-benzoyl-N-methyl-N-(1-phenylethyl)-1,2,3,4-tetrahydroisoquinoline-7-sulfonamide] it was 2000 nM; in that of `CC(C)C(=O)N1CCc2cc(S(=O)(=O)N(C)C3(c4ccc(F)cc4)COC3)ccc2C1` [Example 31, N-(3-(4-fluorophenyl)oxetan-3-yl)-2-isobutyryl-N-methyl-1,2,3,4-tetrahydroisoquinoline-6-sulfonamide], 9120 nM. In the case of `CCN([C@H](c1ccc(F)cc1)C(F)(F)F)S(=O)(=O)c1ccc2c(c1)CN(C(=O)C1CC1)CC2` [Example 48, (R)-2-(Cyclopropanecarbonyl)-N-ethyl-N-(2,2,2-trifluoro-1-(4-fluorophenyl)ethyl)-1,2,3,4-tetrahydroisoquinoline-7-sulfonamide] it was 427 nM; in that of `CCN([C@@H](C)c1ccc(F)cc1)S(=O)(=O)c1ccc2c(c1)C(C)(C)CN(C(=O)C1CC1)C2` [Example 23, (S)-2-(cyclopropanecarbonyl)-N-ethyl-N-(1-(4-fluorophenyl)ethyl)-4,4-dimethyl-1,2,3,4-tetrahydroisoquinoline-6-sulfonamide], 2140 nM; in that of `CCN([C@H](C)c1ccccc1)S(=O)(=O)c1ccc2c(c1)CCN(C(=O)C(C)C)C2` [Example 26, (R)-N-ethyl-2-isobutyryl-N-(1-phenylethyl)-1,2,3,4-tetrahydroisoquinoline-6-sulfonamide], 4170 nM.

As to `C[C@@H](c1ccccc1)N(C)S(=O)(=O)c1ccc2c(c1)CN(C(=O)C1CC1)CC2` [Example 16, (S)-2-(cyclopropanecarbonyl)-N-methyl-N-(1-phenylethyl)-1,2,3,4-tetrahydroisoquinoline-7-sulfonamide], the IC50 was 1020 nM. As for `CC(C)C(=O)N1CCc2ccc(S(=O)(=O)N(C)[C@@H](c3ccc(F)cc3)C(F)(F)F)cc2C1` [Example 10, (S)-2-isobutyryl-N-methyl-N-(2,2,2-trifluoro-1-(4-fluorophenyl)ethyl)-1,2,3,4-tetrahydroisoquinoline-7-sulfonamide], the IC50 is 3720 nM.

For `C[C@@H](c1ccccc1)N(C)S(=O)(=O)c1ccc2c(c1)CN(c1ccncc1)CC2` [Example 3, (S)-N-methyl-N-(1-phenylethyl)-2-(pyridin-4-yl)-1,2,3,4-tetrahydroisoquinoline-7-sulfonamide], the IC50 was 2090 nM. As for `CC(C)C(=O)N1CCc2ccc(S(=O)(=O)N(C)[C@@H](C)c3ccccc3)cc2C1` [Example 15, (S)-2-isobutyryl-N-methyl-N-(1-phenylethyl)-1,2,3,4-tetrahydroisoquinoline-7-sulfonamide], the IC50 was 891 nM.

For `CC(C)C(=O)N1CCc2ccc(S(=O)(=O)N(CCF)[C@H](c3ccc(F)cc3)C(F)(F)F)cc2C1` [Example 51, (R)-N-(2-fluoroethyl)-2-isobutyryl-N-(2,2,2-trifluoro-1-(4-fluorophenyl)ethyl)-1,2,3,4-tetrahydroisoquinoline-7-sulfonamide], the IC50 is 417 nM. `C[C@@H](c1ccccc1)N(C)S(=O)(=O)c1ccc2c(c1)CCN(C)C2=O` [Example 38, (S)-N,2-dimethyl-1-oxo-N-(1-phenylethyl)-1,2,3,4-tetrahydroisoquinoline-6-sulfonamide]: the IC50 is 6610 nM.

The record behind these values is patent US20250136552A1, “ANTAGONISTS OF CAV 2.3” (LARIO THERAPEUTICS LIMITED, priority 2021, published 2025).
